Assay results taken from patent US10358453B2, “Antiviral compounds” (priority 2015, dated 2019).
Where two headings read alike, the source gives them in different places.

Experiments:
[1] = Cytotoxicity determination (CCK-8, without addition of virus); format: cell-based; details: human, HEp-2 cells (uninfected), no virus, Table C = greater than 100 μM, Table D = equal to or less than 100 μM and greater than 10 μM
Description: CPE reduction assays are performed as described by Sidwell and Huffman et al., Appl. Microbiol. (1971) 22(5):797-801 with slight modifications. HEp-2 cells (ATCC#, CCL-23) are seeded at a density of 1,500 cells/30 μL/well into the 384-well cell plate(s) (Corning#3701) one day prior to the assay. Compounds are added into 384-well cell plates by Labcyte POD 810 Plate Assembler system. Each of the test compounds is provided to duplicate wells of a 384-well cell plate at final concentrations starting from 100 μM or 1 μM using 1/3 stepwise dilutions for 9 points. Quick-thaw Respiratory Syncytial Virus (RSV) long strain (ATCC#VR-26) stock in a 37° C. water bath. Place on ice until ready to use. Viruses are diluted to the concentration of 100 TCID50/30 μL with medium and 30 μl diluted RSV are added into related wells of 384-well cell plates. For each plate, sixteen wells are set aside as uninfected, untreated cell controls (CC), and nine wells per test plate receive virus only as a control for virus replication (VC). The final DMSO concentration of all wells is 1%. Place the plates at 37° C., 5% CO2 for 5 days.
In order to determine the compound cytotoxicity, in parallel, each of the compounds is applied to duplicate wells in a 384-well cell plate at serial final concentrations starting from 100 μM using ½ stepwise dilutions for 7 points without addition of virus. Incubate the cells at 37° C., 5% CO2 for 5 days. Add 6 μL CCK-8 into each well and incubate in a CO2 incubator at 37° C. for 3-4 h. Read the plates to obtain the optical densities which are used to calculate 50% cytotoxicity concentration (CC50).

recombinant RSV complex = recombinant RSV complex (Human respiratory syncytial virus A, UniProt P28887); assay: RSV polymerase inhibition assay; format: biochemical; details: 2 h at 30° C., Table E = <1 μM, Table F = <50 μM
Description: Standard RSV polymerase assays were conducted in the presence of 10 nM recombinant RSV complex in a reaction buffer containing Tris-HCl pH7.5, 6 mM MgCl2, and other additives and substrates including RNA oligonucleotides and radionucleotides. Standard reactions were incubated in 96-well plate format for 2 h at 30° C., in the presence of increasing concentration of inhibitor. The reaction was stopped with 90 μL of 0.1M EDTA, and the reaction product was transferred to a “reading” 96-well plate. After washing of the plate, radiolabeled RNA products were detected according to standard procedures with a Trilux Topcount scintillation counter. The compound concentration at which the enzyme-catalyzed rate was reduced by 50% (IC50) was calculated by fitting the data to a non-linear regression (sigmoidal).

[2] = system: RSV subgenomic replicon 395 HeLa and APC126; assay: RSV subgenomic replicon assay (Renilla luciferase); format: cell-based; details: human respiratory syncytial virus; RSV replicon cells (395 HeLa 7 days or APC126 3 days); Table G = less than 1 μM, Table H = equal to or higher than 1 μM and less than 50 μM
Description: The RSV subgenomic replicon 395 HeLa and APC126 were licensed from Apath (Brooklyn, N.Y.) and were originally developed by Dr. Mark Meeples of Center for Vaccines & Immunity, the Research Institute at Nationwide Children's Hospital in Columbus, Ohio. To generate subgenomic RSV replicon, three glycoprotein genes, those for SH, G, and F, from a full-length recombinant GFP-expressing (rg) RSV antigenomic cDNA were deleted. In their place, a blasticidin S deaminase (bsd) gene was inserted. Through multiple steps, the RSV replicon was established in HeLa cells (395 Hela) or BHK cells (APC126). Both 395 HeLa and APC126 cells were cultured in Dulbecco's Modified Eagle Medium (DMEM) containing 4500 mg/L D-glucose, L-glutamine, and 110 mg/L sodium pyruvate (Invitrogen, Cat. #11995-040). The medium was further supplemented with 10% (v/v) fetal bovine serum (FBS) (Mediatech, Cat. #35-010-CV), 1% (v/v) penicillin/streptomycin (Mediatech, Cat. #30-002-CI), and 10 μg/mL of Blasticidin (BSD) (Invivogen, Cat. code ant-bl-1). Cells were maintained at 37° C. in a humidified 5% CO2 atmosphere.
Determination of 50% inhibitory concentration (EC50), 90% inhibitory concentration (EC90) and 50% cytotoxic concentration (CC50) in RSV replicon cells were performed by the following procedure. On the first day, 5000 RSV replicon cells per well were plated in a 96-well plate. On the following day, compounds to be tested were solubilized in 100% DMSO to 100X the desired final testing concentration. Each compound was serially diluted (1:3) up to 9 distinct concentrations. Compounds in 100% DMSO were reduced to 10% (v/v) DMSO by diluting 1:10 in cell culture media. A 10 μL sample of the compounds diluted to 10% (v/v) DMSO with cell culture media was used to treat the RSV replicon cells in 96-well format. The final DMSO concentration was 1% (v/v). Cells were incubated with compounds for 7 days (for 395Hela) or 3 days (for APC126) at 37° C. in a 5% CO2 atmosphere. In each assay, positive control that was previously characterized in the RSV replicon assay was included.
The Renilla Luciferase Assay System (Promega, Cat. #E2820) was used to measure anti-RSV replicon activity. Assay plates were set up as stated above. Luminescence was recorded using a Perkin Elmer multilabel counter Victor3V. EC50, the concentration of the drug required for reducing RSV replicon RNA by 50% in relation to the untreated cell control value, was calculated from the plot of percentage reductions of the […] against the drug concentrations using the Microsoft Excel forecast function.

[3] = 10 nM recombinant RSV complex, read-out: IC50
[4] = IC50, 10 nM recombinant RSV complex

Chain of recombinant RSV complex (P28887 whole entry): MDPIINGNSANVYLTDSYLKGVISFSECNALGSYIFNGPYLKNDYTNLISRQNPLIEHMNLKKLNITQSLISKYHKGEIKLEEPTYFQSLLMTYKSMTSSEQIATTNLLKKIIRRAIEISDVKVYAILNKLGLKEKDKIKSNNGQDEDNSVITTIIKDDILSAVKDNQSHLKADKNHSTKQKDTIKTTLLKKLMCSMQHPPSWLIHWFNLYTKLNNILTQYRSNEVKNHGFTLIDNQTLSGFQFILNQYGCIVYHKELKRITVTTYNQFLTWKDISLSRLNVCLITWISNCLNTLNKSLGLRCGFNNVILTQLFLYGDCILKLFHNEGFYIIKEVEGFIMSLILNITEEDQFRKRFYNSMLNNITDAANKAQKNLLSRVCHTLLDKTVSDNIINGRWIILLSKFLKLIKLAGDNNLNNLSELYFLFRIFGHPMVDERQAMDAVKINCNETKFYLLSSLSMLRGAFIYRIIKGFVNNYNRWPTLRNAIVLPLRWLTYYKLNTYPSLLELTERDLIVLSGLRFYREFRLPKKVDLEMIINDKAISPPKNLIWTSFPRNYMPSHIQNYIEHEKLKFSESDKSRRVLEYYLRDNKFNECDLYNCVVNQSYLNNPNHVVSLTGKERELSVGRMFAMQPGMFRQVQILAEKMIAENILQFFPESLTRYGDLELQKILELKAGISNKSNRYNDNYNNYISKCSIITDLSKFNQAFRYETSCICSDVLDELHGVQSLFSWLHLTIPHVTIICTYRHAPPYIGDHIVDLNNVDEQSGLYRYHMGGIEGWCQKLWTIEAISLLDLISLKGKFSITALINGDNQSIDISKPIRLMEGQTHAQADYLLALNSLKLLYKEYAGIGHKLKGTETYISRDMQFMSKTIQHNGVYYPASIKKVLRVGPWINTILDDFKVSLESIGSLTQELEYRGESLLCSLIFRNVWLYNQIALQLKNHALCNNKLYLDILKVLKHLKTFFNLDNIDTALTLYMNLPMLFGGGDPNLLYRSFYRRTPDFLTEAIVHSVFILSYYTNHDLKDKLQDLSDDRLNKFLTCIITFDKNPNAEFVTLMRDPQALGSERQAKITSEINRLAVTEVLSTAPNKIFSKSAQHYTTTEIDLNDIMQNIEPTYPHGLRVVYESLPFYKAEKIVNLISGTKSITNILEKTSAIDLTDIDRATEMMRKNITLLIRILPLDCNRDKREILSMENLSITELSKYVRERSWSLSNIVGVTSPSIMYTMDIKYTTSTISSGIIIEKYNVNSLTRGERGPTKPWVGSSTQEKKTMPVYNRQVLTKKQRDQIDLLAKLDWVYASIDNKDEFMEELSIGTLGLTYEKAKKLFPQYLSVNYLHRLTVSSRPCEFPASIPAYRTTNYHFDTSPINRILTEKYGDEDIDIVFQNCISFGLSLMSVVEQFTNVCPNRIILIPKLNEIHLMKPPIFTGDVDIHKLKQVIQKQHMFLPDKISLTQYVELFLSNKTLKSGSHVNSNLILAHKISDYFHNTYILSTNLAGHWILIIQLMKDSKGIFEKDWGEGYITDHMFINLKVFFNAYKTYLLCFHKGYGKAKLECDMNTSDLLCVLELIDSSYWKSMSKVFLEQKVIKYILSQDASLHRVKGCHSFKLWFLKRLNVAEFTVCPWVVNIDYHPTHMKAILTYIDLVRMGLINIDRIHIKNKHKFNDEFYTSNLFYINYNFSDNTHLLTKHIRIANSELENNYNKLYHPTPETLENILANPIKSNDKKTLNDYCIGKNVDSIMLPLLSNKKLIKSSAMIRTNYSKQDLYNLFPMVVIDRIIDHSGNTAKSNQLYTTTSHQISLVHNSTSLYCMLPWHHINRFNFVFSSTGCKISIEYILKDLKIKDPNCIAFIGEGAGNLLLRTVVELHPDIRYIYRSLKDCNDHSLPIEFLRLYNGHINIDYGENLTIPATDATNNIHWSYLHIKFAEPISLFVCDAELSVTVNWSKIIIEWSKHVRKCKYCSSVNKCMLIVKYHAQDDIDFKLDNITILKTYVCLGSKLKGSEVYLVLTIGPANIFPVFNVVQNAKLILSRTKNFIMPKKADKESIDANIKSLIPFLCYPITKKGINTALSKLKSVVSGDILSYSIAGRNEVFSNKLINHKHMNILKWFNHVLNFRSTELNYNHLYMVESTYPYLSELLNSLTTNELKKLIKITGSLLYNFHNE
Chain of recombinant RSV complex (P03421 whole entry, further chain): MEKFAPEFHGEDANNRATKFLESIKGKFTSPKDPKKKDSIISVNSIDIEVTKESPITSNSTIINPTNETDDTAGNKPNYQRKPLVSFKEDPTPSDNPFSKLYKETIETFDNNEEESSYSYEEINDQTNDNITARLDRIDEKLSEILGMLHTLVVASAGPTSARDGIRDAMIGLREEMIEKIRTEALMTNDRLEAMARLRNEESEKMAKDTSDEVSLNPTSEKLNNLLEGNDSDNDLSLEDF

SMILES	CC50 at 5 days [1] [µM]	IC50 (recombinant RSV complex; [3]) [nM]	EC50 [2] [nM]	IC50 (recombinant RSV complex; [4]) [nM]
COc1cc(C(=O)NC[C@@](O)(c2cc(C3(C)CCN3)cc(-c3ccc(F)cc3)n2)C(F)(F)F)ccc1OC[C@@H](C)O (single isomer, unassigned) [Compound 15]	10 to 100	< 1000	< 1000	–
COc1cc(C(=O)NCC(O)(c2cc3c(c(-c4ccncc4)n2)OCC3(C)N)C(F)(F)F)ccc1OCCO (stereo not drawn) [Compound 26]	> 100	< 50000	1000 to 50000	–
COc1cc(C(=O)NC[C@@](O)(c2cc3c(c(-c4ccc(F)cc4)n2)OC[C@@]3(C)N)C(F)(F)F)cc2ccc(C(C)(C)O)nc12 [Compound 90]	10 to 100	< 1000	< 1000	–
COc1cc(C(=O)NCC(O)(c2cc3c(c(-c4ccc(F)cc4)n2)OCCC3(C)N)C(F)(F)F)ccc1OCC(C)O (single isomer, unassigned) [Compound 86]	10 to 100	< 1000	1000 to 50000	–
C[C@@]1(N)CNc2c1cc([C@](O)(CNC(=O)c1ccc3c(c1)CC(=O)N3CCO)C(F)(F)F)nc2-c1ccc(F)cc1 [Compound 82]	> 100	–	< 1000	< 1000
CC(C)(N)c1cc(-c2ccc(F)cc2)nc(C(O)(CNC(=O)c2ccc(OCCO)c(OC3CC3)c2)C(F)(F)F)c1 (stereo not drawn) [Compound 34]	10 to 100	< 1000	< 1000	–
COc1cc(C(=O)NCC(O)(c2cc3c(c(-c4ccc(F)cc4)n2)OCC3(C)N)C(F)(F)F)cc2c1NC(=O)CC2 (stereo not drawn) [Compound 11]	10 to 100	< 1000	< 1000	–
COc1cc(C(=O)NCC(O)(c2cc3c(c(-c4ccc(F)cc4)n2)CCC3(C)N)C(F)(F)F)ccc1OCCO (stereo not drawn) [Compound 73]	10 to 100	< 1000	< 1000	–
COc1cc(C(=O)NC[C@@](O)(c2cc3c(c(-c4ccc(F)cc4)n2)OC[C@@]3(C)NC2COC2)C(F)(F)F)ccc1OC[C@@H](C)O [Compound 131]	10 to 100	< 1000	< 1000	–
C[C@@]1(N)COc2c1cc([C@](O)(CNC(=O)c1cc(OCCO)c3[nH]ccc3c1)C(F)(F)F)nc2-c1ccc(F)cc1 [Compound 124]	10 to 100	< 1000	< 1000	–
COc1cc(C(=O)NCC(O)(c2nc(-c3ccc(F)cc3)cc3c2OC(C)(N)C3)C(F)(F)F)ccc1OC[C@@H](C)O (stereo partly drawn) [Compound 120]	10 to 100	< 1000	< 1000	–
C[C@@]1(N)COc2c1cc([C@](O)(CNC(=O)c1cc(OCCO)c3ncccc3c1)C(F)(F)F)nc2-c1ccc(F)cc1 [Compound 80]	10 to 100	< 1000	< 1000	–
COc1cc(C(=O)NC[C@@](O)(c2cc([C@]3(C)CCN3)cc(-c3ccc(F)cc3)n2)C(F)(F)F)ccc1OC[C@@H](C)O (racemic) [Compound 14]	10 to 100	< 1000	< 1000	–
COc1cc(C(=O)NC[C@@](O)(c2cc3c(c(-c4ccc(F)cc4)n2)OC[C@@]3(C)N)C(F)(F)F)ccc1OCC(C)=O [Compound 121]	10 to 100	< 1000	< 1000	–
COc1cnc(C(=O)NCC(O)(c2cc3c(c(-c4ccc(F)cc4)n2)OCC3(C)N)C(F)(F)F)cc1OC (stereo not drawn) [Compound 20]	10 to 100	< 1000	< 1000	–
COc1cc(C(=O)NC[C@@](O)(c2cc3c(c(-c4ccc(F)cc4)n2)OC[C@@]3(C)NC(N)=O)C(F)(F)F)ccc1OC[C@@H](C)O [Compound 132]	10 to 100	< 1000	< 1000	–
COc1ccc(C(=O)NCC(O)(c2cc(C(C)(C)N)cc(-c3ccc(F)cc3)n2)C(F)(F)F)cc1OC[C@@H](C)O (stereo partly drawn) [Compound 39]	10 to 100	< 1000	< 1000	–
COc1cc(C(=O)NCC(O)(c2cc(C(C)CCN)cc(-c3ccc(F)cc3)n2)C(F)(F)F)ccc1OCCO (stereo not drawn) [Compound 13]	10 to 100	< 1000	< 1000	–
COc1cc(C(=O)NC[C@@](O)(c2cc3c(c(-c4ccc(F)cc4)n2)OC[C@@]3(C)N)C(F)(F)F)cc(OC)c1OCCO [Compound 67]	> 100	–	< 1000	< 50000
COc1ccc(C(=O)NCC(O)(c2cc3c(c(-c4ccc(F)cc4)n2)OCC3(C)N)C(F)(F)F)nc1OC (stereo not drawn) [Compound 112]	10 to 100	< 1000	< 1000	–
COc1cc(C(=O)NC[C@@](O)(c2cc3c(c(-c4ccc(F)cc4)n2)OC[C@@]3(C)N)C(F)(F)F)cc(F)c1OC[C@@H](C)O [Compound 122]	10 to 100	< 1000	< 1000	–
COc1cc(C(=O)NC[C@@](O)(c2cc3c(c(-c4ccc(F)cc4)n2)OC[C@@]3(C)NC(C)=O)C(F)(F)F)ccc1OC[C@@H](C)O [Compound 85]	10 to 100	< 1000	< 1000	–
COc1cc(C(=O)NCC(O)(c2cc(C(C)(N)C3CC3)cc(-c3ccc(F)cc3)n2)C(F)(F)F)ccc1OC[C@@H](C)O (stereo partly drawn) [Compound 88]	10 to 100	< 1000	< 1000	–
